Data published in US9573926B2, “Amidoalkylenyl and amidoaryl esters, compositions thereof, and methods for their use” (Allergan, Inc., priority 2014, dated 2017).

Assay: Aqueous stability of formulated compound (% remaining over time)
Format: physicochemical
Details: 0.0005% w/v (5 ppm) in pH 6 buffer contain 1% PS80, n = 1

| % Remaining (25° C., 14 days) | % Remaining (25° C., 28 days) | % Remaining (40° C., 14 days) | % Remaining (40° C., 28 days) | % Remaining (60° C., 14 days) | % Remaining (60° C., 28 days) | SMILES |
| --- | --- | --- | --- | --- | --- | --- |
| 99.3% | 99.6% | 99.1% | 99.5% | 98.6% | 97.0% | CC(=O)NCCOC(=O)c1ccc(CCC[C@@H]2[C@@H](CCc3cc(Cl)cc(Cl)c3)[C@H](O)C[C@H]2Cl)s1 [Compound 2, 2-Acetamidoethyl 5-(3-((1R,2R,3R,5R)-5-chloro-2-(3,5-dichlorophenethyl)-3-hydroxycyclopentyl)propyl)thiophene-2-carboxylate] |
| 99.2% | 103.5% | 99.8% | 100.5% | 99.4% | 98.6% | CC(=O)NCCCOC(=O)c1ccc(CCC[C@@H]2[C@@H](CCc3cc(Cl)cc(Cl)c3)[C@H](O)C[C@H]2Cl)s1 [Compound 3, 3-Acetamidopropyl 5-(3-((1R,2R,3R,5R)-5-chloro-2-(3,5-dichlorophenethyl)-3-hydroxycyclopentyl)propyl)thiophene-2-carboxylate] |
